Assay results from patent US20260231939A1, “ARTHROPOD CONTROL COMPOSITIONS” (Firmenich SA, priority 2022, published 2026).
Read-outs that look alike come from different tables or passages of the source.

Columns and labels:
Anopheles gambiae = test: Warm Body assay, mosquito landings on the baited warm body; type: in vivo; details: for repellence efficacy compared with the saturated counterpart: Warm Body assay, paired t-test, FIG. 4
Method: Anopheles gambiae is also a model organism as it is anthropophilic and transmits malaria.
The controlling effect according to the present invention was assessed using an adapted Warm Body assay as defined in Kröber T, Kessler S, Frei J, Bourquin M, Guerin P M. 2010. J Am Mosq Control Assoc. 26:381-386. In this in-vitro assay the number of mosquito landing on a warm body, simulating an attractive host treated with the tested stimuli, was measured in order to assess the repellence effect. […]
(§1) On the sandblasted glass Petri dish covering the warm body (28.3 cm^2), 100 μL of the compounds diluted at different concentrations in ethanol was applied. The number of mosquito landing on the warm body was counted for each stimulus. Number of landings on pure ethanol (solvent) control treatment was used to normalize the data and calculate the percentage of repellence.

Ae. aegypti = test: Arm-in-cage test on human volunteers; type: in vivo, Aedes aegypti; details: for Arm-in-cage repellence / repellence efficacy compared with saturated 6-pentyloxan-2-one: 20% in ethanol; for repellence efficacy compared with saturated 6-pentyloxan-2-one: Arm-in-Cage, paired t-test, FIG. 5
Method: (§2) The Arm in the box method was adapted from the WHO Guidelines for efficacy testing of mosquito repellents for human skin (WHO/CDS/NTD/WHOPES/2009.4) and/or based on EU biocide testing guidelines (Guidance on the Biocidal Products Regulation. Vol. II Efficacy—Assessment and Evaluation (Parts B+C), v. 4.0. December 2021). The readiness of 200 hungry female mosquitoes Ae. aegypti or 50 An. gambiae to probe is assessed by inserting the untreated arm of human volunteers into the cage (40×40×40 cm) for 30 seconds (negative control) in order to determine probing activity. Then, the product is applied onto the skin of the forearm of the human volunteer (1 mL per 600 cm^2) and after 5 minutes (Ae. aegypti) or 30 minutes (An. gambiae), this arm is inserted into the cage and exposed for 3 minutes. The assay take place in temperature (27±2° C.) and humidity (80±10% RH) regulated room on three different human volunteers.

Ixodes ricinus = test: Warm Plate Assay for ticks; details: for lower dose at which 100% of repellent efficacy is already reached: in vivo
Aedes aegypti = test: Warm Body assay, mosquito landings on the baited warm body; type: in vivo; details: for pest or weed control at 16 µg/mL / pest or weed control at 400 µg/mL / pest or weed control at 10000 µg/mL: Aedes aegypti, read-out: Percentage of repellence of mosquitoes landing on the warm body; for repellence efficacy compared with the saturated counterpart: Warm Body assay, paired t-test where given
Method: The controlling effect according to the present invention was assessed using an adapted Warm Body assay as defined in Kröber T, Kessler S, Frei J, Bourquin M, Guerin P M. 2010. J Am Mosq Control Assoc. 26:381-386. In this in-vitro assay the number of mosquito landing on a warm body, simulating an attractive host treated with the tested stimuli, was measured in order to assess the repellence effect.
The published protocol has been adapted as the switch from Anopheles gambiae to Ae. aegypti led to a decrease of mosquitoes placed in the tested cage due to the size difference (i.e. 30 mosquitoes instead of 50) and to an increase of lighting since Ae. aegypti is a diurnal mosquitoes (i.e. 150 lux instead of 4 lux).
as §1

An. gambiae = test: Arm-in-cage test on human volunteers; type: in vivo, Anopheles gambiae; details: for time during which protection is 100%, i.e. no mosquito landing / Arm-in-cage repellence: 20% in ethanol; for time during which mosquito protection / repellence is >90%: 20% solution in ethanol; for Arm-in-cage repellence, mean of three volunteers: unsaturated δ-lactones at 20%; for repellent effect: dilution of 5%
Method: as §2

Q: Which results are given for CCC=CCCC1CCC(=O)O1 (stereo not shown) [5-hex-3-enyloxolan-2-one]?
A: Percentage of repellence of mosquitoes landing on the warm body (Anopheles gambiae; 0.08 mg/mL): 12%; Percentage of repellence of mosquitoes landing on the warm body (Anopheles gambiae; 0.178 mg/mL): 38%; Percentage of repellence of mosquitoes landing on the warm body (Anopheles gambiae; 0.267 mg/mL): 95%; Percentage of repellence of mosquitoes landing on the warm body (Anopheles gambiae; 0.598 mg/mL): 93%; Percentage of repellence of mosquitoes landing on the warm body (Anopheles gambiae; 0.89 mg/mL): 100%; Percentage of repellence of mosquitoes landing on the warm body (Anopheles gambiae; 2 mg/mL): 100%; Percentage of repellence of mosquitoes landing on the warm body (Anopheles gambiae; 4.47 mg/mL): 100%; Percentage of repellence of mosquitoes landing on the warm body (Anopheles gambiae; 10 mg/mL): 100%; Arm-in-cage repellence (Ae. aegypti; 5 min post application): 98.5% ±; Arm-in-cage repellence (Ae. aegypti; 1 h post application): 97.0% ±; Arm-in-cage repellence (Ae. aegypti; 2 h post application): 93.0% ±; Arm-in-cage repellence (Ae. aegypti; 3 h post application): 88.3% ±; Arm-in-cage repellence (Ae. aegypti; 4 h post application): 79.5% ±; time during which mosquito protection is >90% (Ae. aegypti; 20% solution in ethanol): 2 h; Percentage of repellence of ticks on the warm plate (Ixodes ricinus; 0.40 mg/mL): 17%; Percentage of repellence of ticks on the warm plate (Ixodes ricinus; 10 mg/mL): 100%; pest or weed control at 16 µg/mL (Aedes aegypti; γ-lactones, 0.016 mg/mL in ethanol): 0%; pest or weed control at 400 µg/mL (Aedes aegypti; γ-lactones, 0.4 mg/mL in ethanol): 81%; pest or weed control at 10000 µg/mL (Aedes aegypti; γ-lactones, 10 mg/mL in ethanol): 95%; repellence efficacy compared with the saturated counterpart (Aedes aegypti): significantly higher; time during which protection is 100%, i.e. no mosquito landing (An. gambiae): 4 h; Arm-in-cage repellence (An. gambiae; 30 min post application): 100% ±; Arm-in-cage repellence (An. gambiae; 1 h post application): 100% ±; Arm-in-cage repellence (An. gambiae; 2 h post application): 100% ±; Arm-in-cage repellence (An. gambiae; 3 h post application): 100% ±; Arm-in-cage repellence (An. gambiae; 4 h post application): 100% ±; Arm-in-cage repellence (An. gambiae; 5 h post application): 97.85% ±; Arm-in-cage repellence (An. gambiae; 6 h post application): 80.07% ±; time during which mosquito protection / repellence is >90% (An. gambiae): 5 h

Q: Which results are given for CC=CCCC1CCCC(=O)O1 (stereo not shown) [6-pent-3-enyloxan-2-one]?
A: repellence efficacy compared with the saturated counterpart (Anopheles gambiae): significantly more efficient; repellence efficacy compared with saturated 6-pentyloxan-2-one (Ae. aegypti): more efficient; Percentage of repellence of ticks on the warm plate (Ixodes ricinus; 0.40 mg/mL): 83%; Percentage of repellence of ticks on the warm plate (Ixodes ricinus; 2 mg/mL): 100%; Percentage of repellence of ticks on the warm plate (Ixodes ricinus; 10 mg/mL): 100%; lower dose at which 100% of repellent efficacy is already reached (Ixodes ricinus): 0.2%; pest or weed control at 16 µg/mL (Aedes aegypti; δ-lactones, 0.016 mg/mL): 20%; pest or weed control at 400 µg/mL (Aedes aegypti; δ-lactones, 0.4 mg/mL): 98%; pest or weed control at 10000 µg/mL (Aedes aegypti; δ-lactones, 10 mg/mL): 100%; repellence efficacy compared with the saturated counterpart (Aedes aegypti): significantly more efficient; time during which protection is 100%, i.e. no mosquito landing (An. gambiae): 3 h; time during which mosquito protection / repellence is >90% (An. gambiae): 8 h; Arm-in-cage repellence, mean of three volunteers (An. gambiae; 30 min): 100% ±; Arm-in-cage repellence, mean of three volunteers (An. gambiae; 1 h): 100% ±; Arm-in-cage repellence, mean of three volunteers (An. gambiae; 2 h): 100% ±; Arm-in-cage repellence, mean of three volunteers (An. gambiae; 3 h): 100% ±; Arm-in-cage repellence, mean of three volunteers (An. gambiae; 4 h): 99.0% ±; Arm-in-cage repellence, mean of three volunteers (An. gambiae; 5 h): 98.4% ±; Arm-in-cage repellence, mean of three volunteers (An. gambiae; 6 h): 98.3% ±; Arm-in-cage repellence, mean of three volunteers (An. gambiae; 7 h): 94.9% ±; Arm-in-cage repellence, mean of three volunteers (An. gambiae; 8 h): 94.7% ±

Q: What does the source list for CCC=CCC1CCCC(=O)O1 (stereo not shown) [6-pent-2-enyloxan-2-one]?
A: repellence efficacy compared with the saturated counterpart (Anopheles gambiae): significantly more efficient; repellence efficacy compared with saturated 6-pentyloxan-2-one (Ae. aegypti): more efficient; Percentage of repellence of ticks on the warm plate (Ixodes ricinus; 0.08 mg/mL): 33%; Percentage of repellence of ticks on the warm plate (Ixodes ricinus; 0.18 mg/mL): 42%; Percentage of repellence of ticks on the warm plate (Ixodes ricinus; 0.40 mg/mL): 75%; Percentage of repellence of ticks on the warm plate (Ixodes ricinus; 0.89 mg/mL): 100%; Percentage of repellence of ticks on the warm plate (Ixodes ricinus; 2 mg/mL): 100%; Percentage of repellence of ticks on the warm plate (Ixodes ricinus; 10 mg/mL): 100%; lower dose at which 100% of repellent efficacy is already reached (Ixodes ricinus): 0.089%; repellence efficacy compared with the saturated counterpart (Aedes aegypti): significantly more efficient; time during which protection is 100%, i.e. no mosquito landing (An. gambiae): 4 h; time during which mosquito protection / repellence is >90% (An. gambiae): 6 h; repellent effect (An. gambiae; 30 min after application): 100%; repellent effect (An. gambiae; 1 h after application): 99.2%; repellent effect (An. gambiae; 2 h after application): 67.2%; Arm-in-cage repellence, mean of three volunteers (An. gambiae; 30 min): 100% ±; Arm-in-cage repellence, mean of three volunteers (An. gambiae; 1 h): 100% ±; Arm-in-cage repellence, mean of three volunteers (An. gambiae; 2 h): 100% ±; Arm-in-cage repellence, mean of three volunteers (An. gambiae; 3 h): 100% ±; Arm-in-cage repellence, mean of three volunteers (An. gambiae; 4 h): 100% ±; Arm-in-cage repellence, mean of three volunteers (An. gambiae; 5 h): 99.2% ±; Arm-in-cage repellence, mean of three volunteers (An. gambiae; 6 h): 92.3% ±; Arm-in-cage repellence, mean of three volunteers (An. gambiae; 7 h): 87.8% ±
